The target of one assay is T1, BAS0541T (Bacillus anthracis, UniProt A0A384L3H6).
T1 construct: gene GBAA_0572
To be noted: labelled compound ([gamma-32P]ATP mixed with 2.5 uM ATP), 4 mM MgCl2, pH 8, 37 °C.

The target of the next assay is T2, BAS0540 (Bacillus anthracis, UniProt A0A6L7HQL1).
T2 construct: gene GBAA_0571
To be noted: 60 mM donor, 20 mM MgCl2, pH 7.5, 37 °C; covalent phosphorylation, probable acceptor Asp50.

T2 sequence (A0A6L7HQL1 1-223 limits assumed): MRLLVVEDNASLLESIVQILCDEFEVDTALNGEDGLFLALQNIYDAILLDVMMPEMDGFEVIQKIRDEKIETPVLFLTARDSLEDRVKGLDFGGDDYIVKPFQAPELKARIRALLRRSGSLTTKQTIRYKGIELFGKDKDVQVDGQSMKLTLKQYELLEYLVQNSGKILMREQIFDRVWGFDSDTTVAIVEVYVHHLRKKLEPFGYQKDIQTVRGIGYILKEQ
T1 sequence (A0A384L3H6 190-416 limits assumed): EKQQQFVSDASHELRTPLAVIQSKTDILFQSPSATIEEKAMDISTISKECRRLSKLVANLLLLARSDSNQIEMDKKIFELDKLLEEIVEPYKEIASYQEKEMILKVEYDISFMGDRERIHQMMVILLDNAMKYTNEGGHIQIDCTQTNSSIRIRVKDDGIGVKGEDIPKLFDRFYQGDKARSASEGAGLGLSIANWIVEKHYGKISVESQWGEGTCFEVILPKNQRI

For `Nc1ncnc2c1ncn2[C@@H]1O[C@H](COP(=O)(O)OP(=O)(O)OP(=O)(O)O)[C@@H](O)[C@H]1O` [ATP], the “autophosphorylation, SDS-PAGE autoradiography” value on BAS0541T is “Autophosphorylation was assayed by incubating the purified BAS0541T with radiolabelled ATP mixture”.

As for `CC(=O)OP(=O)(O)O` [acetyl phosphate], the “phosphorylation by small-molecule donor, native PAGE, Coomassie” value on BAS0540 was “physiologically relevant small molecule phosphodonors, AcP and CP”.

Turning to `NC(=O)OP(=O)(O)O` [carbamoyl phosphate], the “phosphorylation by small-molecule donor, native PAGE, Coomassie” value on BAS0540 was “physiologically relevant small molecule phosphodonors, AcP and CP”.

Source of the values: paper PMC4938410 (PLoS ONE, 2016).
